According to US20240016933A1, “Methods of Anchoring or Reconstituting Active Molecules on Metabolically Labeled Cells” (The General Hospital Corporation, priority 2020, published 2024):

Legend:
Format in all cases: cell-based
[1] = tested on: HeLa cells; assay: Placement of trastuzumab mimotope on azide-modified cells, flow analysis; conditions: AzNAM 100 μM for 24 hours
Experimental: (§1) Jurkat and HeLa cells were cultured for three days in their optimal media (RPMI-10% FBS/DMEM-10% FBS, respectively) in 6-well plates to reach a state of sub-confluency. AzNAM (from 100 mM DMSO stock) was added to designated wells to a […] of 100 μM. Control wells received equal volumes of DMSO only. After 24 hours, cells were harvested (directly for the non-adherent Jurkat cells, and with Cell Stripper reagent for HeLa cells), and washed in PBS. […] Cells treated with the DBCO-Jmim peptide were then subjected to standard staining with Trastuzumab (BioVision), followed by secondary staining with FITC-conjugated goat-anti-human kappa chain antibody. During the staining procedure, the control washed DBCO-FAM treated cells were kept on ice. Finally, all cells were subjected to flow cytometric analysis.

[2] = tested on: Jurkat cells; assay: as above; conditions: AzNAM 100 μM for 24 hours
Experimental: as §1

[3] = tested on: HeLa cells; assay: Surface azide labeling of HeLa cells with AzNAM, DBCO-FAM fluorescence read in plate reader; conditions: AzNAM 10-125 μM for 20 hours, then 10 μM DBCO-FAM for 1 hour
Experimental: Initially, cells were cultured in a suitable culture vessel such that their level of confluency at the time of addition of the azide-modified sugar, AzNAM, was not more than 80%.
In particular, HeLa cells were plated in 6-well plates (2.5×10^4 cells/well) and incubated for 48 hours in DMEM-10% FBS medium in a standard 5% CO2 atmosphere. Medium from each well was removed, and each well was washed with 2 ml of phosphate buffered saline (PBS), and fresh DMEM-FBS (1 ml) added. Subsequently, varying amounts of AzNAM (solubilized in DMSO) were added to the wells in small (10 μl) volumes to produce the desired final concentrations in the range 10-125 μM. After an additional 20 hours incubation, the medium in each well was removed, and the wells were washed with 2 ml of PBS, followed by addition of 1 ml of PBS. Then, a fluorescent azide reactive molecule, DBCO-FAM (Broadpharm), was directly added to each well to produce a final concentration of 10 μM.
Plates with added DBCO-FAM were protected from bright light and incubated for 1 hour at room temperature. Supernatants in each well were removed, and each well was washed twice with 2 ml of PBS. […] After pelleting and washing in PBS, cells were resuspended in 150 μl of PBS and counted. Defined numbers in 50 μl volumes in a 96-well Blackwell plate (Corning) were assayed for fluorescence in a fluorescent plate reader (Tecan).

[4] = tested on: HeLa cells; assay: Surface azide labeling of HeLa cells with AzNAM, DBCO-FAM fluorescence by flow cytometry; conditions: AzNAM 125 μM for 20 hours, versus cells receiving no azide-modified sugar
Experimental: In separate cultures, HeLa cells were added to wells of a 12-well plate at 10,000 cells/well, and cultured for 72 hours under normal conditions. The wells were washed with 1 ml of PBS, and 0.5 ml of DMEM-10% FBS was added. AzNAM was added to a final concentration of 125 μM, with cells receiving no azide-modified sugar as controls. After 20 hours, cells were harvested with CellStripper (250 μl/well), washed with PBS, and subjected to flow analysis.

[5] = then 10 μM DBCO-Jmim for 1 hour, trastuzumab plus FITC goat-anti-human kappa, versus DMSO controls

azido-N-acetylmannosamine [AzNAM]
fluorescence after metabolic labeling and DBCO-FAM treatment (flow analysis) ([1]; then 10 μM DBCO-FAM for 1 hour): positive fluorescence
staining with trastuzumab (flow analysis) [1, 5]: strong staining with trastuzumab
fluorescence after metabolic labeling and DBCO-FAM treatment (flow analysis) ([2]; then 10 μM DBCO-FAM for 1 hour): positive fluorescence
staining with trastuzumab (flow analysis) [2, 5]: strong staining with trastuzumab
cell-associated fluorescence (96-well plate format) [3]: cell-associated fluorescence increased as a function of the levels of AzNAM
flow analysis peak shift (DBCO-FAM fluorescence) [4]: marked and well-demarcated peak shifts
